This passage reports Kd and IC50 results from ChEMBL document CHEMBL1821662 (Bioorg Med Chem Lett, 2011).

Each structure is given as a SMILES string.

Experiment [1] has as its target T1, Aurora kinase B (Homo sapiens, UniProt Q96GD4). The experiment in a line: Binding affinity to Aurora B kinase catalytic domain by competitive binding assay.
For experiment [2], the target named is T1, Aurora kinase B. Description: Inhibition of Aurora B kinase assessed as reduction in histone H3 phosphorylation in human HCT116 cells. Type of experiment: cell-based, HCT-116.
The next experiment addresses T2, Aurora kinase C (Homo sapiens, UniProt Q9UQB9).
T2 sequence (Q9UQB9 whole entry): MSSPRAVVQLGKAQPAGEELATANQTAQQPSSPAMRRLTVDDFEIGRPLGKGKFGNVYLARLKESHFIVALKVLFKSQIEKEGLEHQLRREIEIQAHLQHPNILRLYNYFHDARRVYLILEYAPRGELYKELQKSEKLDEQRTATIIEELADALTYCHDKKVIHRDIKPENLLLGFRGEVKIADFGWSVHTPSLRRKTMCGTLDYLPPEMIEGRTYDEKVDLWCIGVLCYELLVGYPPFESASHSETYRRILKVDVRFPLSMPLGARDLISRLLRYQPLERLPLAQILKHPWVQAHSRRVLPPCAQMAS
The experiment in a line: Binding affinity to Aurora C kinase catalytic domain by competitive binding assay.

The test system of the next experiment is HCT-116. The experiment in a line: Antiproliferative activity against human HCT116 cells. Type of experiment: functional, cell-based.
A further experiment has as its target T3, Aurora kinase A (Homo sapiens, UniProt O14965).
T3 sequence (O14965 whole entry): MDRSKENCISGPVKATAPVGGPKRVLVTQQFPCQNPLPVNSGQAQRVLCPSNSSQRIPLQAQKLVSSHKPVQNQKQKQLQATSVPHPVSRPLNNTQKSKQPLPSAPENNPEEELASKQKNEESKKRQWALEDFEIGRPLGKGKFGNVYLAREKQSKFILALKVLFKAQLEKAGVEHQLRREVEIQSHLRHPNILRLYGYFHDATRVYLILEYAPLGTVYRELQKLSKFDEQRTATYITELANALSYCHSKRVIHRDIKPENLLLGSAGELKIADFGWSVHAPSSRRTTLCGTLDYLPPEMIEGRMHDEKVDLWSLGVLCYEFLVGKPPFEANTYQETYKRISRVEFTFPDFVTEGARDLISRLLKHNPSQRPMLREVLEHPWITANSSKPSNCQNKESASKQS
The experiment in a line: Binding affinity to Aurora A kinase catalytic domain by competitive binding assay.

T1 sequence (Q96GD4 whole entry, the tested form may be a part): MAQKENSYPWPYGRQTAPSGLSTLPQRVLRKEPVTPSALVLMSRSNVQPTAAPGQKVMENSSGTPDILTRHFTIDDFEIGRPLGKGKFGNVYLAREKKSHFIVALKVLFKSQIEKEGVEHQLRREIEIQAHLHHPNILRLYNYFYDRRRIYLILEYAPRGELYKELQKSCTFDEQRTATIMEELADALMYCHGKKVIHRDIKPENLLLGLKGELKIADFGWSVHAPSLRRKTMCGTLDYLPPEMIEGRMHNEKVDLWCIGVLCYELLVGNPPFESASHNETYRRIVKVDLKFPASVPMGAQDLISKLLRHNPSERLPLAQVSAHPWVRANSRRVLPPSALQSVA

Regarding `Cc1cc(Nc2nc(Sc3ccc(NC(=O)C4CC4)cc3)nn3cc(NC(=O)CN4CCC[C@@H]4CO)cc23)n[nH]1`, the Kd at Aurora kinase B [1] came out at 16 nM; on Aurora kinase C it was 80 nM; on Aurora kinase A, 10 nM. Also, the half-inhibitory concentration (IC50) was determined as 6300 nM at Aurora kinase B [2] and 536 nM in the experiment with HCT-116.
As for `Cc1cc(Nc2nc(Sc3ccc(NC(=O)CN4C[C@@H](F)C[C@H]4CO)cc3)nn3cccc23)n[nH]1`, the figures for the Kd at Aurora kinase B [1] and on Aurora kinase A were 4 nM and 8 nM, respectively. The figures for the half-maximal inhibitory concentration (IC50) on Aurora kinase B [2] and with HCT-116 were 28 nM and 25 nM, respectively.
For `Cc1cc(Nc2nc(Sc3ccc(NC(=O)CN4C[C@@H](O)[C@@H](Oc5ccc(F)cc5)C4)cc3)nn3cccc23)n[nH]1`, the values for the dissociation constant (Kd) at Aurora kinase B [1] and on Aurora kinase A were 8 nM and 7 nM, respectively. For the same molecule, the 50% inhibitory concentration (IC50) was 84 nM on Aurora kinase B [2] and 9 nM in the experiment with HCT-116.
Consider `Cc1cc(Nc2nc(Sc3ccc(NC(=O)CN4C[C@H](OC(C)C)[C@@H](O)C4)cc3)nn3cccc23)n[nH]1`, for which the Kd on Aurora kinase B [1] is 4 nM; at Aurora kinase A it was 8 nM. For the same molecule, the concentration for half-maximal inhibition (IC50) on Aurora kinase B [2] is 23 nM; in the experiment with HCT-116, 10 nM.
In the same order, the values of `Cc1cc(Nc2nc(Sc3ccc(NC(=O)CN4C[C@H](Oc5ccccc5F)[C@@H](O)C4)cc3)nn3cccc23)n[nH]1` are 9 nM, 10 nM, 28 nM and 4 nM.
Regarding `Cc1cc(Nc2nc(Sc3ccc(NC(=O)CN4C[C@H](Oc5ccc(F)cc5F)[C@@H](O)C4)cc3)nn3cccc23)n[nH]1`, the Kd at Aurora kinase B [1] worked out at 17 nM; on Aurora kinase A, 13 nM. The half-inhibitory concentration (IC50) on Aurora kinase B [2] stood at 58 nM; with HCT-116 it was 5 nM.
`Cc1cc(Nc2nc(Sc3ccc(NC(=O)CN4C[C@H](OC(C)(C)C)C[C@@H]4CO)cc3)nn3cccc23)n[nH]1`: the Kd at Aurora kinase B [1] was 69 nM; on Aurora kinase A, 301 nM. The results for the 50% inhibitory concentration (IC50) on Aurora kinase B [2] and with HCT-116 were 2490 nM and 2390 nM, respectively.
With `Cc1cc(Nc2nc(Sc3ccc(NC(=O)CN4C[C@H](OC5CCCC5)[C@@H](O)C4)cc3)nn3cccc23)n[nH]1`, the Kd on Aurora kinase B [1] stood at 4 nM; at Aurora kinase A, 11 nM. Besides, the IC50 at Aurora kinase B [2] came out at 23 nM; in the experiment on HCT-116, 6 nM.
With `Cc1cc(Nc2nc(Sc3ccc(NC(=O)CNC4CC4)cc3)nn3cccc23)n[nH]1`, the dissociation constant Kd at Aurora kinase B [1] is 41 nM; on Aurora kinase C, 6 nM; at Aurora kinase A it was 32 nM. In addition, the IC50 is 288 nM on Aurora kinase B [2] and 364 nM in the experiment with HCT-116.
Take `Cc1cc(Nc2nc(Sc3ccc(NC(=O)CNC4CCCC4)cc3)nn3cccc23)n[nH]1`: the Kd at Aurora kinase B [1] is 42 nM; at Aurora kinase C it was 14 nM; at Aurora kinase A, 143 nM. Further, the IC50 is 655 nM on Aurora kinase B [2] and 365 nM in the experiment with HCT-116.
For `Cc1cc(Nc2nc(Sc3ccc(NC(=O)CN4CCC[C@H]4CO)cc3)nn3cccc23)n[nH]1`, the Kd at Aurora kinase B [1] amounted to 4 nM; at Aurora kinase C, 1 nM; at Aurora kinase A it was 14 nM. The IC50 worked out at 146 nM on Aurora kinase B [2] and 148 nM in the experiment on HCT-116.
Take `Cc1cc(Nc2nc(Sc3ccc(NC(=O)CN4C[C@H](Oc5ccc(F)cc5)C[C@H]4CO)cc3)nn3cccc23)n[nH]1`: the Kd at Aurora kinase B [1] amounted to 21 nM; on Aurora kinase A, 53 nM. For the same molecule, the concentration for half-maximal inhibition (IC50) came to 78 nM on Aurora kinase B [2] and 24 nM with HCT-116.
As for `Cc1cc(Nc2nc(Sc3ccc(NC(=O)CN4CCOCC4)cc3)nn3cccc23)n[nH]1`, the Kd at Aurora kinase B [1] was 41 nM; at Aurora kinase C, 17 nM; at Aurora kinase A, 85 nM. Moreover, the IC50 at Aurora kinase B [2] amounted to 1830 nM; in the experiment on HCT-116, 1840 nM.
On Aurora kinase B [1], `COCCO[C@H]1CN(CC(=O)Nc2ccc(Sc3nc(Nc4cc(C)[nH]n4)c4cccn4n3)cc2)C[C@@H]1O` showed an equilibrium dissociation constant (Kd) of 2 nM. Further, the half-inhibitory concentration (IC50) was found to be 49 nM on Aurora kinase B [2] and 25 nM in the experiment on HCT-116.
Consider `Cc1cc(Nc2nc(Sc3ccc(NC(=O)CN4CC(=NO)[C@@H](OC(C)(C)C)C4)cc3)nn3cccc23)n[nH]1` (mixture of isomers), for which the values for the Kd at Aurora kinase B [1] and at Aurora kinase A were 5 nM and 9 nM, respectively. Moreover, the IC50 at Aurora kinase B [2] worked out at 28 nM; in the experiment on HCT-116, 8 nM.
Consider `Cc1cc(Nc2nc(Sc3ccc(NC(=O)CN4C[C@H](Oc5cccc(F)c5)[C@@H](O)C4)cc3)nn3cccc23)n[nH]1`, for which the Kd at Aurora kinase B [1] came to 10 nM; on Aurora kinase A it was 17 nM. Moreover, the IC50 at Aurora kinase B [2] worked out at 51 nM; with HCT-116 it was 7 nM.
Consider `Cc1cc(Nc2nc(Sc3ccc(NC(=O)CN4C[C@H](SC(C)(C)C)C[C@H]4CO)cc3)nn3cccc23)n[nH]1`, for which the Kd on Aurora kinase B [1] was determined as 39 nM; at Aurora kinase A it was 111 nM. Besides, the IC50 on Aurora kinase B [2] came to 1790 nM; in the experiment on HCT-116 it was 1610 nM.
On the same counts, the results for `Cc1cc(Nc2nc(Sc3ccc(NC(=O)CN4C[C@H](F)C[C@H]4CO)cc3)nn3cccc23)n[nH]1` are 9 nM, 15 nM, 91 nM and 104 nM.
Regarding `Cc1cc(Nc2nc(Sc3ccc(NC(=O)CN4C[C@H]5C[C@H]5[C@H]4CO)cc3)nn3cccc23)n[nH]1`, the equilibrium dissociation constant (Kd) on Aurora kinase B [1] is 15 nM; at Aurora kinase A, 17 nM. The IC50 turned out to be 179 nM at Aurora kinase B [2] and 203 nM in the experiment with HCT-116.
Turning to `Cc1cc(Nc2nc(Sc3ccc(NC(=O)CN4C[C@H](Oc5cc(F)cc(F)c5)[C@@H](O)C4)cc3)nn3cccc23)n[nH]1`, the results for the Kd on Aurora kinase B [1] and at Aurora kinase A were 21 nM and 26 nM, respectively. Also, the half-inhibitory concentration (IC50) was 51 nM on Aurora kinase B [2] and 7 nM in the experiment on HCT-116.
For the molecule `Cc1cc(Nc2nc(Sc3ccc(NC(=O)CN4C[C@H](OCC5CC5)[C@@H](O)C4)cc3)nn3cccc23)n[nH]1`, the Kd worked out at 2 nM at Aurora kinase B [1] and 7 nM on Aurora kinase A. For the same molecule, the results for the half-inhibitory concentration (IC50) at Aurora kinase B [2] and in the experiment on HCT-116 were 23 nM and 10 nM, respectively.
For the molecule `Cc1cc(Nc2nc(Sc3ccc(NC(=O)CN4CC(F)(F)C[C@H]4CO)cc3)nn3cccc23)n[nH]1`, the values for the Kd on Aurora kinase B [1], on Aurora kinase C and at Aurora kinase A were 5 nM, 2 nM and 8 nM, respectively. Also, the figures for the IC50 on Aurora kinase B [2] and in the experiment with HCT-116 were 29 nM and 25 nM, respectively.
Take `Cc1cc(Nc2nc(Sc3ccc(NC(=O)C4CC4)cc3)nn3cc(NC(=O)CN4CCCC4)cc23)n[nH]1`: the results for the dissociation constant Kd on Aurora kinase B [1], at Aurora kinase C and at Aurora kinase A were 49 nM, 13 nM and 23 nM, respectively. For the same molecule, the results for the IC50 on Aurora kinase B [2] and with HCT-116 were 828 nM and 536 nM, respectively.
On to `Cc1cc(Nc2nc(Sc3ccc(NC(=O)C4CC4)cc3)nn3cc(NC(=O)CN4CCOCC4)cc23)n[nH]1`, for which the Kd at Aurora kinase B [1] stood at 9 nM; at Aurora kinase C, 3 nM; at Aurora kinase A, 7 nM. Moreover, the figures for the IC50 at Aurora kinase B [2] and with HCT-116 were 420 nM and 160 nM, respectively.
Take `Cc1cc(Nc2nc(Sc3ccc(NC(=O)CN(C)C)cc3)nn3cccc23)n[nH]1`: the Kd at Aurora kinase B [1] was 8 nM; at Aurora kinase C, 5 nM; on Aurora kinase A, 31 nM. In addition, the 50% inhibitory concentration (IC50) on Aurora kinase B [2] came out at 293 nM; in the experiment on HCT-116 it was 370 nM.
As for `Cc1cc(Nc2nc(Sc3ccc(NC(=O)CN4C[C@H](O)[C@@H](F)C4)cc3)nn3cccc23)n[nH]1`, the figures for the dissociation constant Kd on Aurora kinase B [1] and at Aurora kinase A were 1 nM and 5 nM, respectively. The IC50 at Aurora kinase B [2] was found to be 47 nM; with HCT-116, 33 nM.
Take `Cc1cc(Nc2nc(Sc3ccc(NC(=O)CN4C[C@H](O)C[C@H]4CO)cc3)nn3cccc23)n[nH]1`: the results for the Kd on Aurora kinase B [1] and at Aurora kinase A were 15 nM and 58 nM, respectively. In addition, the values for the IC50 on Aurora kinase B [2] and in the experiment with HCT-116 were 637 nM and 596 nM, respectively.
On the same counts, the results for `CCC(C)(C)O[C@H]1CN(CC(=O)Nc2ccc(Sc3nc(Nc4cc(C)[nH]n4)c4cccn4n3)cc2)C[C@@H]1O` are 4 nM, 8 nM, 28 nM and 9 nM.
Turning to `Cc1cc(Nc2nc(Sc3ccc(NC(=O)C4CC4)cc3)nn3cc(NC(=O)CCN4CCCCC4)cc23)n[nH]1`, the equilibrium dissociation constant (Kd) at Aurora kinase B [1] came to 37 nM; at Aurora kinase C, 10 nM; at Aurora kinase A, 38 nM. Besides, the IC50 on Aurora kinase B [2] stood at 850 nM; in the experiment with HCT-116, 101 nM.
On to `Cc1cc(Nc2nc(Sc3ccc(NC(=O)CN4C[C@H](OC(C)(C)C(F)(F)F)[C@@H](O)C4)cc3)nn3cccc23)n[nH]1`, for which the dissociation constant Kd turned out to be 4 nM on Aurora kinase B [1] and 6 nM on Aurora kinase A. Besides, the IC50 was 27 nM at Aurora kinase B [2] and 9 nM in the experiment with HCT-116.
For the molecule `Cc1cc(Nc2nc(Sc3ccc(NC(=O)CN4C[C@H](N)C[C@H]4CO)cc3)nn3cccc23)n[nH]1`, the Kd was 144 nM on Aurora kinase B [1] and 381 nM at Aurora kinase A. Further, the 50% inhibitory concentration (IC50) on Aurora kinase B [2] was determined as 15000 nM; with HCT-116 it was 4700 nM.
On to `Cc1cc(Nc2cc(N3CCN(C)CC3)nc(Sc3ccc(NC(=O)C4CC4)cc3)n2)n[nH]1` [TOZASERTIB], for which, in the experiment on HCT-116, the half-maximal inhibitory concentration (IC50) was found to be 28 nM.

In general, Kd refers to the constant that tells how readily two partners part at equilibrium. Read a high Kd as a looser complex. As a reminder, the IC50 is the concentration needed to halve the response being measured.
